The text below walks through data of patent US11753404B2, “Aminothiazole compounds as c-Kit inhibitors” (Ariad Pharmaceuticals, Inc., priority 2016, dated 2023).

The target of test [1] is T1, BAF3 FL KIT EX11DEL (Homo sapiens, UniProt P10721, cells depend on it, form not given).
T1 construct: BAF3 FL KIT EX11DEL
As to the kind of experiment: c-Kit assay: Ba/F3 KIT mutant cell viability (Cell Titer-Glo, 72 hours). In kind it is cell-based. Conditions: viability after 72 hours. In a few lines:
(§1)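 Ba/F3 cells made IL-3-independent by lentiviral KIT mutant expression, grown in RPMI/10% FBS at 37 °C. Eight 4-fold compound concentrations (10 μM to 0.61 nM) for 72 h; Cell Titer-Glo viability normalised to vehicle, IC50 from dose–response curves.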
On the technique in general: Cellular ATP, detected with luciferase, serves as a proxy for viable cell number.

Test [2] has as its target T2, BAF3 FL KIT EX11DEL/D816H (Homo sapiens, UniProt P10721, D816H, cells depend on it, form not given).
T2 construct: BAF3 FL KIT EX11DEL/D816H
The description is as above. In kind it is cell-based. Particulars: viability after 72 hours. In a few lines: as §1

In test [3] the target is T3, BAF3 FL KIT EX11DEL/T670I (Homo sapiens, UniProt P10721, T670I, cells depend on it, form not given).
T3 construct: BAF3 FL KIT EX11DEL/T670I
T3 sequence (P10721 with tags, fused parts or gaps DEL557-558/T670I, form open): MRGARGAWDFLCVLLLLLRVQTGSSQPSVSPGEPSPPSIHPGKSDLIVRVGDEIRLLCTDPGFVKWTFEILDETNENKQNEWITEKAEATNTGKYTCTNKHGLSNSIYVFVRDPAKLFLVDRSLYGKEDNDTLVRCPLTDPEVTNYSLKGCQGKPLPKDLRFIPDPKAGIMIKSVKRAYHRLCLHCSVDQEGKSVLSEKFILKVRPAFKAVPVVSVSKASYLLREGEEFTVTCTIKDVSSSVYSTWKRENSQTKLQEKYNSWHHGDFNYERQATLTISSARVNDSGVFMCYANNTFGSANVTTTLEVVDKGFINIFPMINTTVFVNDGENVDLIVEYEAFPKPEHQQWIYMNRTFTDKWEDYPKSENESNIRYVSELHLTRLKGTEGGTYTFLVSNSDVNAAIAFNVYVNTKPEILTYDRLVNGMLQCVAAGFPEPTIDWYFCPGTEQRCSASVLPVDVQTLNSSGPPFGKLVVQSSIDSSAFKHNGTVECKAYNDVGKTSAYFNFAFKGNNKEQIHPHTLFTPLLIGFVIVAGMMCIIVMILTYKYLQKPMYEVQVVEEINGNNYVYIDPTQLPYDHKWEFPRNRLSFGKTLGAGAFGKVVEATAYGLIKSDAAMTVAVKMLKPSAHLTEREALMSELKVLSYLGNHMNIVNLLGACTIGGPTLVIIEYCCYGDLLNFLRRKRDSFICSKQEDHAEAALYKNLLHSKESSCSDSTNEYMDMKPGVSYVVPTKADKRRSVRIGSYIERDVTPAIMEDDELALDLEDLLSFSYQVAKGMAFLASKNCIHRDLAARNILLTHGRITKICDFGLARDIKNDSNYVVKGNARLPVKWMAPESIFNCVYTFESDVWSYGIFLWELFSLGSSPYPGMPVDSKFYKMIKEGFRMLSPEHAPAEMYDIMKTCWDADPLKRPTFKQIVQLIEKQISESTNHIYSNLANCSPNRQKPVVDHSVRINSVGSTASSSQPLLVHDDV
Described as above. The test is classed as cell-based. Particulars: viability after 72 hours. In a few lines:
as §1

Test [4] deals with T4, BAF3 FL KIT EX11DEL/V654A (Homo sapiens, UniProt P10721, V654A, cells depend on it, form not given).
T4 construct: BAF3 FL KIT EX11DEL/V654A
T4 sequence (P10721 with tags, fused parts or gaps DEL557-558/V654A, form open): as the sequence (P10721 with tags, fused parts or gaps DEL557-558/T670I, form open) above, with V652A, I668T counted along it
Described as above. In kind it is cell-based. Conditions: viability after 72 hours. In a few lines: as §1

The subject of test [5] is gastrointestinal stromal tumors (GIST). Particulars: third line therapy; cited from earlier work.

Some results are limits rather than exact numbers.

T2 sequence (P10721 with tags, fused parts or gaps DEL557-558/D816H, form open): as the sequence (P10721 with tags, fused parts or gaps DEL557-558/T670I, form open) above, with I668T, D814H counted along it
T1 sequence (P10721 with tags, fused parts or gaps DEL557-558): as the sequence (P10721 with tags, fused parts or gaps DEL557-558/T670I, form open) above, with I668T counted along it

The term GI50 denotes the concentration that inhibits growth by half. The low end stands for greater sensitivity of the cells, the high end for lower sensitivity of the cells. As for `Cc1ccc(NC(=O)c2cc(C(F)(F)F)ccn2)cc1C#Cc1cnc(NC(=O)N(C)CCO)s1` [I-60, N-(3-((2-(3-(2-hydroxyethyl)-3-methylureido)thiazol-5-yl)ethynyl)-4-methylphenyl)-4-(trifluoromethyl)picolinamide], the GI50 was < 10 nM in test [1], 10 to 50 nM in test [2], 50 to 100 nM in test [3] and 10 to 50 nM in test [4].

On to `COCCN(C)C(=O)Nc1ncc(C#Cc2cccc(NC(=O)c3cc(C(F)(F)F)ccn3)c2)s1` [I-61, N-(3-((2-(3-(2-methoxyethyl)-3-methylureido)thiazol-5-yl)ethynyl)phenyl)-4-(trifluoromethyl)picolinamide], for which the GI50 is < 10 nM in test [1], 10 to 50 nM in test [2], 10 to 50 nM in test [3] and 10 to 50 nM in test [4].

As to `COCCN(C)C(=O)Nc1ncc(C#Cc2cc(NC(=O)c3cc(C(F)(F)F)ccn3)ccc2F)s1` [I-62, N-(4-fluoro-3-((2-(3-(2-methoxyethyl)-3-methylureido)thiazol-5-yl)ethynyl)phenyl)-4-(trifluoromethyl)picolinamide], the concentration for 50% growth inhibition (GI50) in test [1] was < 10 nM; in test [2], 10 to 50 nM; in test [3], < 10 nM; in test [4] it was 10 to 50 nM.

For the compound `CNC(=O)c1cc(Oc2ccc(NC(=O)Nc3ccc(Cl)c(C(F)(F)F)c3)c(F)c2)ccn1` [Regorafenib], in test [5], the ORR is given as 4.5% and the “median PFS” value was 4.8 months.
